Source: US20180055812A1, “METHOD AND COMPOSITIONS FOR TREATMENT OF CANCER” (priority 2008, published 2018)
Read-outs that look alike come from different tables or passages of the source.

Key:
H460 cells = format: cell-based
A549 cells = format: cell-based
[1] = H460 cells, MTT, 5 days incubation
[2] = A549 cells, MTT, 5 days incubation

Row | Compound | IC75 (H460 cells; [1]) [µM] | IC90 (H460 cells; [1]) [µM] | IC50 (H460 cells; H460 non-small cell lung cancer cells, MTT, 5 days incubation) [µM] | IC75 (A549 cells; [2]) [µM] | IC90 (A549 cells; [2]) [µM] | IC50 (H460 cells) [µM] | IC75 (H460 cells) [µM] | IC90 (H460 cells) [µM] | IC50 (A549 cells) [µM] | IC75 (A549 cells) [µM] | IC90 (A549 cells) [µM]
1 | N.N.[Cl][Pt][Cl] [Cisplatin, cis-diamminedichloroplatinum (II), reference compound] | 1.7 | 2.5 | 1 | 2 | 4 |  |  |  |  |  | 
2 | O=[As][O-].[Na+] [Sodium Meta Arsenite, sodium meta arsenite] |  |  |  |  |  | 10 | 20 | 30 | 13 | 19 | 17
